In PMC3568910, “P2X7 Receptor Activation Induces Reactive Oxygen Species Formation and Cell Death in Murine EOC13 Microglia” (Mediators of Inflammation, 2013):
Where “and” joins values, the source holds several entries; their conditions need not be identical. Equal values may be shown once. Entries after “also recorded” stand apart in the source; their conditions may differ. Read-outs that look alike come from different tables or passages of the source. Each block holds one compound with its values, some of them ahead of it.

Columns and labels:
[1] = biological target: T1, P2X7 (Mus musculus, UniProt Q9Z1M0); assay: Fixed-time ethidium+ uptake assay (flow cytometry) in J774 macrophage cells; assay type: cell-based, murine; settings: for ethidium+ uptake compared to absence of nucleotide: 5 min
T1 construct: endogenous in cells; host or cells: EOC13 murine microglial cell line
T1 sequence (Q9Z1M0 1-595): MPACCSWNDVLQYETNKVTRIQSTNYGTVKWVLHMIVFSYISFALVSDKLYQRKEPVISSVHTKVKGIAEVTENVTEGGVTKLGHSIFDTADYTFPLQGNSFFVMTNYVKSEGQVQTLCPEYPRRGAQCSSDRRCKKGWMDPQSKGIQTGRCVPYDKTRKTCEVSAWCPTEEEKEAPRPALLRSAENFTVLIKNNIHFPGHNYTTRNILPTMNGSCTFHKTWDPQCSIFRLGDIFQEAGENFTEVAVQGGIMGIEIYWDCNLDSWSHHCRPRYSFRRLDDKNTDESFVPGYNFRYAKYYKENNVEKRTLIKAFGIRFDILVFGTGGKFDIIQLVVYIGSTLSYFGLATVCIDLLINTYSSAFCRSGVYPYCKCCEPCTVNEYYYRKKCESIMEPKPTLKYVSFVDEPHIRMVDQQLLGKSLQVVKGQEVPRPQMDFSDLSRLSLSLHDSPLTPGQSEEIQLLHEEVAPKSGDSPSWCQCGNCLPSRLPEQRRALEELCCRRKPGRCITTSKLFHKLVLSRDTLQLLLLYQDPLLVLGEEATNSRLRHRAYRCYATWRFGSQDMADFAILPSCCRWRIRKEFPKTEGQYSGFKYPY

[2] = biological target: T1, P2X7; assay: Fixed-time ethidium+ uptake assay (flow cytometry) in EOC13 microglial cells; assay type: cell-based, murine; settings: for impairment of ATP-induced ethidium+ uptake: 15 min preincubation
[3] = tested on: EOC13 cells
[4] = tested on: P2X7; parameters: method as in PMID 18657557; settings: read-out: half maximal effective concentration (EC50) of ATP for P2X7 activation; cited from earlier work
[5] = tested on: EOC13 cells; assay: cells; assay type: cell-based
Protocol: (§1) Following the 24 h incubations, cells were harvested from wells using 0.05% trypsin (5 min, 37°C) and washed once with Annexin-V binding medium (NaCl medium containing 5 mM CaCl2). Cells were then incubated with Annexin-V binding medium containing Annexin-V-Fluorescein and 7AAD at room temperature protected from light for 15 min. […] Quadrant markers were used to determine the percentage of Annexin-V^+/7AAD^−, Annexin-V^−/7AAD^+, and Annexin-V^+/7AAD^+ cells. In some experiments, cells prior to harvesting were visualised by DIC imaging to examine cell morphology, and DIC images captured as outlined in Section 2.8.

[6] = tested on: EOC13 cells; assay: NO formation assay (DAF-FM DA, flow cytometry) in EOC13 cells; assay type: cell-based, murine
Source text: The medium was removed, and the cells were washed once.

[7] = biological target: T1, P2X7; assay: Fixed-time YO-PRO-1 2+ uptake assay (flow cytometry) in EOC13 microglial cells; assay type: cell-based, murine; settings: 10 μM
[8] = tested on: EOC13 cells; assay: Cell viability assessed by forward and side scatter (gated viable cells); assay type: cell-based, murine; settings: for cell viability (forward and side scatter): 10 μM; for reduction of the amount of gated viable cells: ethidium+ uptake assay
[9] = tested on: EOC13 cells; assay: cells; settings: Mus musculus, read-out: inhibition of ATP-induced ROS formation, EOC13 cells, 40 mM NAC, 30 min preincubation, 1.4 mM ATP, NaCl medium
[10] = tested on: EOC13 cells; assay: Cell morphology by DIC imaging; assay type: cell-based, murine
Protocol: as §1

[11] = read-out: IC50 for impairment of 1 mM ATP-induced ethidium+ uptake, J774 cells, NaCl medium, 15 min preincubation, 1 mM ATP 5 min, 37°C
[12] = EOC13 cells, antagonist 30 μM, 1 mM ATP

ethidium+ uptake compared to absence of nucleotide ([1]; J774 cells, 0.1 mM BzATP): induced significant ethidium^+ uptake | ethidium+ uptake compared to absence of nucleotide ([2]; EOC13 cells, 0.1 mM BzATP, 5 min): induce significant ethidium^+ uptake
Compound: 2′(3′)-O-(4-benzoylbenzoyl) ATP [BzATP]

inhibition of ATP-induced ethidium+ uptake ([1]; J774 cells, antagonist 100 μM, 1 mM ATP): completely inhibited | IC50 [1, 11]: 7.9 ± 0.4 µM | impairment of ATP-induced ethidium+ uptake ([2]; EOC13 cells, antagonist 100 μM, 1 mM ATP): 90 ± 1%
Compound: Clc1cccc(-c2nnnn2Cc2cccnc2)c1Cl [A438079]

Compound: Nc1ncnc2c1ncn2[C@@H]1O[C@H](COP(=O)(O)OP(=O)(O)OP(=O)(O)O)[C@@H](O)[C@H]1O [ATP, adenosine-5′-triphosphate]
ROS formation compared to absence of ATP ([3]; 575 μM ATP4- (1.4 or 2 mM ATP), NaCl medium in absence and presence of 1 mM Ca2+): induced significant ROS formation | ROS formation compared to absence of ATP ([3]; 1.4 mM ATP, NaCl and KCl media): induced significant ROS formation | ROS formation compared to absence of ATP ([3]; 1.4 mM ATP, NaCl medium, 15 min (NAC experiment control)): induced significant ROS formation | ROS formation compared to absence of ATP ([3]; 1.4 mM ATP, absence and presence of 100 μM EGTA): significant but similar amounts of ROS formation | MFI of ROS formation ([3]; 2 mM ATP, NaCl medium with 1 mM Ca2+, 15 min, absence of ATP 5.18 ± 0.06): 16.3 ± 0.6 | ATP concentrations inducing significant ROS formation ([3]; complete DMEM medium, 15 min): 2 or 3 but not 1 mM ATP | EC50 [4]: 100 to 300 µM | duration of transient ATP incubation giving significant cell death ([5]; EOC13 cells, 2 mM ATP, then fresh medium 24 h): 30 or 60 min but not 15 min and 30–60 but not 15 min | ATP concentrations giving significantly higher total cell death than absence of ATP ([5]; EOC13 cells, complete DMEM medium, 24 h): 2 or 3 mM ATP but not 1 mM ATP and 2 or 3 but not 1 mM ATP | ethidium+ uptake compared to absence of nucleotide ([1]; J774 cells, 1 mM ATP): induced significant ethidium^+ uptake | ethidium+ uptake compared to absence of nucleotide ([2]; EOC13 cells, 1 mM ATP, 5 min): induce significant ethidium^+ uptake | EC50 ([2]; EOC13 cells, NaCl medium, 5 min, 37°C, read-out: EC50 for induction of ethidium+ uptake): ~130 µM and 130 µM | NO formation compared to absence of ATP ([6]; 1.4 mM ATP, 15 min, NaCl medium): induced significant NO formation

Compound: O=C(CC12CC3CC(CC(C3)C1)C2)Nc1cccc2nc(NCCNCCO)ccc12 [AZ10606120]
inhibition of ATP-induced ROS formation ([3]; 10 μM, 15 min preincubation, 2 mM ATP, NaCl medium with 1 mM Ca2+): complete inhibition; also recorded: completely impaired | inhibition of ATP-induced ROS formation ([3]; 10 μM, 15 min preincubation, 2 mM ATP, complete DMEM medium): completely inhibited | effect on basal ROS formation ([3]; 10 μM, absence of ATP): did not significantly alter | inhibition of ATP-induced ethidium+ uptake ([1]; J774 cells, antagonist 10 μM, 1 mM ATP): completely inhibited | IC50 [1, 11]: 1 ± 0.1 µM | inhibition of ATP-induced YO-PRO-1 2+ uptake ([7]; 15 min preincubation, 1 mM ATP): complete inhibition | effect on basal YO-PRO-1 2+ uptake ([7]; absence of ATP): did not significantly alter | cell viability (forward and side scatter) ([8]; NO assay): did not significantly alter | cell viability (forward and side scatter) ([8]; ROS assay): did not significantly alter | inhibition of ATP-induced NO formation ([6]; 10 μM, 15 min preincubation, 1.4 mM ATP): 82 ± 11% | effect on basal NO formation ([6]; 10 μM, absence of ATP): did not significantly alter

type of antagonism at the ATP concentration used ([1]; J774 cells, 1 mM ATP): partial antagonists | IC50 [1, 11]: 1.5 ± 0.1 µM | effect on basal ethidium+ uptake ([2]; EOC13 cells, absence of ATP, antagonist at concentration used (10-100 μM)): significantly altered | impairment of ATP-induced ethidium+ uptake [2, 12]: 99 ± 1%
Compound: O=C1CSC(=O)N1C(CCc1ccncc1)COc1ccc(-c2cccc([N+](=O)[O-])c2)cc1 (centres unmarked) [AZ11645373]
reduction of the amount of gated viable cells ([8]; 30 μM): ~ 30%

IC50 [1]: 1.8 ± 0.2 µM | type of antagonism at the ATP concentration used ([1]; J774 cells, 1 mM ATP): partial antagonists | impairment of ATP-induced ethidium+ uptake [2, 12]: 75 ± 2%
Compound: CCOc1ccc(Nc2ccc(/C(=C3C=C/C(=[N+](/CC)Cc4cccc(S(=O)(=O)[O-])c4)C=C/3C)c3ccc(N(CC)Cc4cccc(S(=O)(=O)O)c4)cc3C)cc2)cc1 [BBG, Brilliant Blue G]

Compound: c1ccc2c(c1)[I+]c1ccccc1-2 [DPI, diphenyleneiodonium]
cell death on preincubation ([3]; 5–40 μM DPI, 30 min preincubation, data not shown): high amounts of cell death; also recorded: induced the death of EOC13 microglia

Compound: CC(=O)N[C@@H](CS)C(=O)O [NAC, N-acetyl-L-cysteine]
inhibition at 40000 µM [9]: 73.7 ± 0.3% | inhibition of ATP-induced ROS formation ([3]; 40 mM NAC, 30 min preincubation, 1.4 mM ATP, NaCl medium): 74% | effect on percentage of ATP-induced cell death ([5]; EOC13 cells, 40 mM NAC, 75 and 30 min preincubation followed by 15 and 60 min 2 mM ATP, respectively): had no effect | inhibition at 40000 µM ([5]; Mus musculus, read-out: inhibition of ATP-induced cell death): 99 ± 6% | effect on ATP-associated morphological changes (DIC) ([10]; 40 mM NAC 90 min, 2 mM ATP final 45 min, then 24 h): prevented the morphological changes associated with ATP incubation | effect on cell morphology (DIC) ([10]; ROS assay conditions, 40 mM NAC with or without 1.4 mM ATP): not altered by NAC | effect on cell morphology (DIC), NAC alone ([10]; cell death assay conditions, 40 mM NAC 90 min, then 24 h): no effect on cell morphology | inhibition at 40000 µM ([2]; P2X7, read-out: inhibition of ATP-induced ethidium+ uptake (pore formation)): 30 ± 2% | reduction of the amount of gated viable cells ([8]; incubation with 40 mM NAC and ATP together, not either compound alone): ~ 40%
